Six compounds from patent publication US20140357713A1, “ANTIMICROBIAL COMPOUNDS AND METHODS OF USE” (NexMed Holdings, Inc., priority 2012, published 2014) can be followed below.

Where a name gives a salt, the structure may show the parent alone. Read-outs that look alike come from different tables or passages of the source. A value given as a limit tells only on which side of the number the result lay.

Data set [1] deals with Staphulococcus aureus (ATCC 29213). The data set is described as follows: Minimum inhibitory concentration (MIC) assay, Example 33. Type of data set: cell-based, Staphylococcus aureus. Conditions: Staphylococcus aureus. In outline:
(§1)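 Broth microdilution per CLSI guidelines in CAMHB, with 2-fold serial compound dilutions. Inoculum was set to a 0.5 McFarland standard, diluted 1:100 to twice the test density, then mixed 1:2 with drug. Plates were incubated at 35° C and the MIC read per CLSI.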

The test system of data set [2] is Escherichia coli (ATCC 25922). The data set is described as above. Type of data set: cell-based. The settings on record: Escherichia coli. In outline: as §1
Data set [3] concerns Pseudomonas aeruginosa (ATCC 27853). The data set is described as above. Type of data set: cell-based. The settings on record: Pseudomonas aeruginosa. In outline: as §1
Data set [4] relates to Aspergillus niger (CMCC 98003). Described as above. Type of data set: cell-based. Conditions: for MIC: Aspergillus niger; for MIC Aspergillus niger: n = 2. In a few lines:
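Conidia gently probed from sporulating colonies into RPMI 1640, set to 0.09-0.13 at 530 nm, then diluted 1:50 and mixed 1:2 with 2-fold serially diluted compounds. Following CLSI guidelines, incubation was at 35 °C before the MIC was recorded.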

Data set [5] deals with Candida albicans (ATCC 90029). The data set is described as follows: Time kill study, Example 33 (0 to 5 min). Type of data set: cell-based. Conditions: 1×MIC. In outline: (§2)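 CLSI time-kill: suspension + compound solution, 1:1 by volume. Sampled 0 min, 30 sec, 1 min, 5 mins; diluted in test medium, streaked on agar. Colonies counted at 24 to 48 hrs; read-out Log10 CFU/mL.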

Data set [6] relates to Staphylococcus aureus (ATCC 29213). The data set is described as follows: Time kill study, Example 33 (0 to 5 min). The settings on record: 1×MIC. Type of data set: cell-based. In a few lines:
as §2

Data set [7] has as its system Escherichia coli (ATCC 25922). The data set is described as follows: Time kill study, Example 33 (0 to 5 min). Type of data set: cell-based. Conditions: 1×MIC. In a few lines: as §2
Data set [8] deals with Pseudomonas aeruginosa (ATCC 27853). As to the kind of experiment: Time kill study, Example 33 (0 to 5 min). Type of data set: cell-based. Conditions: 1×MIC. In a few lines:
as §2

A short description of data set [9]: Solubility (Sol., Table 1). Type of data set: physicochemical.
Data set [10] relates to Candida albicans (ATCC 90029). As to the kind of experiment: Minimum inhibitory concentration (MIC) assay, Example 33. Conditions: Candida albicans. Type of data set: cell-based. In outline: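 MIC read per CLSI after incubation at 35° C. Colonies in RPMI 1640 adjusted to OD530 0.08–0.13, diluted 1:50 and 1:20 to twice test density, then added 1:2 to wells holding 2-fold serial drug dilutions in RPMI 1640 (CLSI microdilution).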

For data set [11], the system named is Aspergillus niger (CMCC 98003). As to the kind of experiment: Time kill study, Example 33 (0 to 5 min). Type of data set: cell-based. Conditions: 1×MIC. The procedure: Thirty compounds were tested for antimicrobial activity using standard procedures and standard strains for both the minimum inhibitory concentration (MIC) assay and a time kill study. Both the MIC assay and the time kill study were performed according to Clinical and Laboratory Standards Institute (CLSI) guidelines. Three bacteria strains, Escherichia coli (ATCC 25922), Pseudomonas aeruginosa (ATCC 27853), Staphulococcus aureus (ATCC 29213), and two fungus strains, Candida albicans (ATCC 90029) and Aspergillus niger (CMCC 98003), were used in the experiments.
The viable counts in Log10 CFU/mL at each time point were recorded.
Time kill studies. Strain suspensions were prepared as described above for the MIC test, and strain suspensions and compound solutions were mixed in the same volume. Samples were removed at specified times including 0 min, 30 sec, 1 min and 5 mins, were diluted in the test medium and streaked on agar. Colonies were counted after 24 to 48 hrs of incubation.
The MIC values for thirty compounds against Escherichia coli, Pseudomonas aeruginosa, Staphulococcus aureus, Candida albicans, and Aspergillus niger were recorded and are presented in Table 3 and Table 4.

The next data set in a line: pH (Table 1). Type of data set: physicochemical.
[12] abbreviates: ATCC29213, read-out: MIC S. aureus, n = 1.
Where [13] appears, read: ATCC29213, read-out: MIC S. aureus, n = 2.
[14] abbreviates: ATCC25922, Table 19 summary of Example 33 and Example 35.
Where [15] appears, read: ATCC25922, read-out: MIC E. coli, n = 1.
Setting [16] is: ATCC25922, read-out: MIC E. coli, n = 2.
Where [17] appears, read: ATCC27853, read-out: MIC P. aeruginosa, n = 1.
The mark [18] stands for this setting: ATCC27853, read-out: MIC P. aeruginosa, n = 2.
[19] abbreviates: CMCC98003, read-out: MIC Aspergillus niger.
[20] abbreviates: ATCC90029, read-out: MIC Candida albicans, n = 1.
The mark [21] stands for this setting: ATCC90029, read-out: MIC Candida albicans, n = 2.

`CCCCCCCCCCCC(C)OC(=O)C(C)N(C)C` (centres unmarked) (as salt: hydrochloride) [Nex-64, Tridecan-2-yl 2-(dimethylamino)propanoate hydrochloride] gave a melting point of 88 to 94 °C.
As for `CCCCCCCCCCCCOC(=O)CN(C)C` [Nex-52, Dodecyl 2-(dimethylamino)acetate hydrochloride], the MIC was 200 µg/mL in [1] (ATCC29213, Table 19 summary); 200 µg/mL in data set [1] (setting [12]); 100 µg/mL in data set [1] (setting [13]); 1560 µg/mL in [2] (setting [14]); 1560 µg/mL in data set [2] (setting [15]); 1560 µg/mL in [2] (setting [16]). Moreover, the MIC in data set [3] (ATCC27853, Table 19 summary) worked out at 6250 µg/mL; in [3] (setting [17]) it was 6250 µg/mL; in [3] (setting [18]) it was 6250 µg/mL; in data set [4] (CMCC98003) it was 3130 µg/mL; in [4] (setting [19]), 3130 µg/mL; in [10] (ATCC90029, Table 19 summary), 50 µg/mL. For the same compound, the MIC in data set [10] (setting [20]) and in data set [10] (setting [21]) was 50 µg/mL throughout. Also, the “MIC Aspergillus niger” value in data set [4] was 3130 µg/mL. For the same compound, the “Viable counts, Candida albicans time kill study” value in data set [5] (0.5 min) is listed as 5.19 Log10 CFU/mL; in [5] (1 min) it was 5.17 Log10 CFU/mL; in data set [5] (5 min), 5.23 Log10 CFU/mL; in data set [5] (time 0) it was 5.24 Log10 CFU/mL. The “Viable counts, Staphylococcus aureus time kill study” value is recorded as 6.27 Log10 CFU/mL in [6] (0.5 min), 6.12 Log10 CFU/mL in data set [6] (1 min), 6.13 Log10 CFU/mL in data set [6] (5 min) and 6.26 Log10 CFU/mL in [6] (time 0). The “Viable counts, Escherichia coli time kill study” value in data set [7] (0.5 min) was found to be 6.12 Log10 CFU/mL; in data set [7] (1 min) it was 5.86 Log10 CFU/mL; in data set [7] (5 min), 5.24 Log10 CFU/mL; in data set [7] (time 0), 5.95 Log10 CFU/mL. Moreover, the “Viable counts, Pseudomonas aeruginosa time kill study” value in data set [8] (0.5 min) is given as 4.7 Log10 CFU/mL; in data set [8] (1 min), 4 Log10 CFU/mL; in data set [8] (5 min) it was less than 3.52 Log10 CFU/mL; in data set [8] (time 0) it was 5.56 Log10 CFU/mL. Besides, the Sol. in data set [9] was found to be 49%. The “Viable counts, Aspergillus niger time kill study” value came to 5.28 Log10 CFU/mL in [11] (0.5 min), 5.28 Log10 CFU/mL in data set [11] (1 min), 4.95 Log10 CFU/mL in data set [11] (5 min) and 5.30 Log10 CFU/mL in data set [11] (time 0). The pH in “pH (Table 1)” was 3.30.
`CCCCCCCCCCCCOC(=O)C(C)(C)N(C)C` (as salt: hydrochloride) [Nex-58, Dodecyl 2-(dimethylamino)-2-methylpropanoate hydrochloride] had a melting point of 68 to 74 °C.
The same measure, in the same setting: the figure for `CCCCCCCCCCCCOC(=O)C(C)N(C)C` (centres unmarked) (as salt: salt) [Nex-30, Dodecyl 2-(dimethylamino)propanoate ethanesulfonate] is 45 to 50 °C.
Turning to `CCCCCCCCCCOC(=O)C(C)N(C)C` (centres unmarked) [Nex-68, Decyl 2-(dimethylamino)propanoate hydrochloride], the MIC came to 3130 µg/mL in data set [1] (ATCC29213, Table 19 summary); 3130 µg/mL in data set [1] (setting [12]); 3130 µg/mL in data set [1] (setting [13]); 780 µg/mL in data set [2] (setting [14]); 780 µg/mL in data set [2] (setting [15]); 1560 µg/mL in [2] (setting [16]). Further, the MIC in data set [3] (ATCC27853, Table 19 summary) was found to be 3130 µg/mL; in data set [3] (setting [17]), 3130 µg/mL; in data set [3] (setting [18]), 3130 µg/mL; in data set [4] (CMCC98003), 3130 µg/mL; in data set [4] (setting [19]) it was 3130 µg/mL; in data set [10] (ATCC90029, Table 19 summary), 390 µg/mL. Moreover, the MIC in [10] (setting [20]) amounted to 390 µg/mL; in [10] (setting [21]) it was 200 µg/mL. The “MIC Aspergillus niger” value in [4] was 3130 µg/mL. The “Viable counts, Candida albicans time kill study” value in [5] (0.5 min) is on record as 5.35 Log10 CFU/mL; in [5] (1 min), 5.15 Log10 CFU/mL; in data set [5] (5 min), 5.13 Log10 CFU/mL; in data set [5] (time 0) it was 5.47 Log10 CFU/mL. For the same compound, the “Viable counts, Staphylococcus aureus time kill study” value in data set [6] (0.5 min) is given as 5.82 Log10 CFU/mL; in data set [6] (1 min), 5.88 Log10 CFU/mL; in data set [6] (5 min), 5.57 Log10 CFU/mL; in [6] (time 0), 6.39 Log10 CFU/mL. The “Viable counts, Escherichia coli time kill study” value in data set [7] (0.5 min) is on record as 5.53 Log10 CFU/mL; in data set [7] (1 min), 4.3 Log10 CFU/mL; in data set [7] (5 min), less than 3.52 Log10 CFU/mL; in data set [7] (time 0), 5.88 Log10 CFU/mL. Further, the “Viable counts, Pseudomonas aeruginosa time kill study” value is 5.18 Log10 CFU/mL in data set [8] (0.5 min), 4.88 Log10 CFU/mL in data set [8] (1 min), 4.87 Log10 CFU/mL in data set [8] (5 min) and 5.78 Log10 CFU/mL in data set [8] (time 0). This compound yielded a Sol. in [9] of 97%. The “Viable counts, Aspergillus niger time kill study” value in [11] (0.5 min), in data set [11] (1 min), in [11] (5 min) and in [11] (time 0) was 5.25 Log10 CFU/mL in each case. The pH in the data set “pH (Table 1)” was 0.87.
Consider `CCCCCCCCOC(=O)C(C)N(C)C` (centres unmarked) [Nex-70, Octyl 2-(dimethylamino)propanoate hydrochloride], for which the MIC in [1] (ATCC29213, Table 19 summary) stood at 3130 µg/mL; in data set [1] (setting [12]) it was 3130 µg/mL; in data set [1] (setting [13]), 3130 µg/mL; in data set [2] (setting [14]), 780 µg/mL; in data set [2] (setting [15]), 780 µg/mL; in data set [2] (setting [16]), 780 µg/mL. Also, the MIC in data set [3] (ATCC27853, Table 19 summary) turned out to be 3130 µg/mL; in [3] (setting [17]) it was 3130 µg/mL; in [3] (setting [18]), 3130 µg/mL; in data set [4] (CMCC98003) it was 12500 µg/mL; in data set [4] (setting [19]) it was 12500 µg/mL; in [10] (ATCC90029, Table 19 summary), 780 µg/mL. For the same compound, the MIC in data set [10] (setting [20]) and in [10] (setting [21]) was 780 µg/mL each time. The “MIC Aspergillus niger” value in [4] amounted to 12500 µg/mL. The “Viable counts, Candida albicans time kill study” value worked out at 5.53 Log10 CFU/mL in [5] (0.5 min), 5.51 Log10 CFU/mL in [5] (1 min), 5.49 Log10 CFU/mL in [5] (5 min) and 5.55 Log10 CFU/mL in data set [5] (time 0). Besides, the “Viable counts, Staphylococcus aureus time kill study” value in [6] (0.5 min) came to 6.42 Log10 CFU/mL; in data set [6] (1 min) it was 6.37 Log10 CFU/mL; in [6] (5 min) it was 6.22 Log10 CFU/mL; in data set [6] (time 0) it was 6.37 Log10 CFU/mL. Moreover, the “Viable counts, Escherichia coli time kill study” value in data set [7] (0.5 min) is recorded as less than 4.0 Log10 CFU/mL; in data set [7] (1 min), less than 3.70 Log10 CFU/mL; in [7] (5 min), less than 3.52 Log10 CFU/mL; in data set [7] (time 0), 5.0 Log10 CFU/mL. The “Viable counts, Pseudomonas aeruginosa time kill study” value in [8] (0.5 min) is given as less than 4.0 Log10 CFU/mL; in data set [8] (1 min), less than 3.70 Log10 CFU/mL; in data set [8] (5 min), less than 3.52 Log10 CFU/mL; in data set [8] (time 0), 5.62 Log10 CFU/mL. This compound yielded a Sol. in data set [9] of 134%. The compound further yielded a pH in “pH (Table 1)” of 0.88.
